Laboratory results from patent US11957687B2 (REGENERON PHARMACEUTICALS, INC., priority 2019, dated 2024).

Each compound was assayed against HSD17B13 (Homo sapiens (Human), UniProt Q7Z5P4) (assay: HSD17B13 enzymatic inhibition assay (150 nM or 50 nM HSD17B13)). Conditions: 50 nM HSD17B13; read-out: Inhibition of 50 nM of HSD17B13 IC50.
Format: biochemical

HSD17B13, sequence (Q7Z5P4 other isoform, or with tags, fused parts or gaps): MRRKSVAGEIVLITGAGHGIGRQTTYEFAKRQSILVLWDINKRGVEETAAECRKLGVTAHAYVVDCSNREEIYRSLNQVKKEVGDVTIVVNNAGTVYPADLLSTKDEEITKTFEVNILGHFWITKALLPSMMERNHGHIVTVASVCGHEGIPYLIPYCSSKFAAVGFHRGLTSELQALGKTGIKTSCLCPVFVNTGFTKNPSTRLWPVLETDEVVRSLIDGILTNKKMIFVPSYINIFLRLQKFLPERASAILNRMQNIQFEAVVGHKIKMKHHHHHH

| SMILES | IC50 [nM] |
| --- | --- |
| COc1ccccc1C(NC(=O)c1ccc(C(F)(F)F)[nH]c1=O)c1ccccc1 (stereo not shown) [Compound 8, N-((2-methoxyphenyl)(phenyl)methyl)-2-oxo-6-(trifluoromethyl)-1,2-dihydropyridine-3-carboxamide] | 1610 |
| O=C(NC(c1ccccc1)c1ccc(N2CCCCC2)cc1)c1ccc(C(F)(F)F)[nH]c1=O (stereo not shown) [Compound 9A, 2-oxo-N-(phenyl(4-(piperidin-1-yl)phenyl)methyl)-6-(trifluoromethyl)-1,2-dihydropyridine-3-carboxamide] | 1200 |
| Cc1ccc(C(NC(=O)c2cnc(C(F)(F)F)[nH]c2=O)c2ccc(C)cc2)cc1 [Compound 13A, N-(di-p-tolylmethyl)-6-oxo-2-(trifluoromethyl)-1,6-dihydropyrimidine-5-carboxamide] | 1310 |
| Cc1ccc(C(NC(=O)c2cnc(C(F)(F)F)[nH]c2=O)c2ccccc2)cc1C (stereo not shown) [Compound 18A, N-((3,4-dimethylphenyl)(phenyl)methyl)-6-oxo-2-(trifluoromethyl)-1,6-dihydropyrimidine-5-carboxamide] | 2620 |
| CC(NC(=O)c1ccc(C(F)(F)F)[nH]c1=O)(c1ccc(O)cc1)c1ccc(O)cc1 [Compound 21A, N-(1,1-bis(4-hydroxyphenyl)ethyl)-2-oxo-6-(trifluoromethyl)-1,2-dihydropyridine-3-carboxamide] | 1850 |
| O=C(NC(c1ccc(CC(F)(F)F)cc1)c1ccc(CC(F)(F)F)cc1)c1ccc(C(F)(F)F)[nH]c1=O [Compound 23A, N-(bis(4-(2,2,2-trifluoroethyl)phenyl)methyl)-2-oxo-6-(trifluoromethyl)-1,2-dihydropyridine-3-carboxamide] | 990 |
| C/C=C/c1ccc(C(NC(=O)c2ccc(C(F)(F)F)[nH]c2=O)c2ccccc2)cc1 (stereo not shown) [Compound 29, (E)-2-oxo-N-(phenyl(4-(prop-1-en-1-yl)phenyl)methyl)-6-(trifluoromethyl)-1,2-dihydropyridine-3-carboxamide] | 470 |
| C=C(C)c1ccc(C(NC(=O)c2ccc(C(F)(F)F)[nH]c2=O)c2ccccc2)cc1 (stereo not shown) [Compound 30, 2-oxo-N-(phenyl(4-(prop-1-en-2-yl)phenyl)methyl)-6-(trifluoromethyl)-1,2-dihydropyridine-3-carboxamide] | 750 |
| O=C(NC(c1ccccc1)c1ccc(C2=CCCC2)cc1)c1ccc(C(F)(F)F)[nH]c1=O (stereo not shown) [Compound 31, N-((4-(cyclopent-1-en-1-yl)phenyl)(phenyl)methyl)-2-oxo-6-(trifluoromethyl)-1,2-dihydropyridine-3-carboxamide] | 460 |
| O=C(NC(c1ccccc1)c1ccc(C2=CCCCC2)cc1)c1ccc(C(F)(F)F)[nH]c1=O (stereo not shown) [Compound 32, 2-oxo-N-(phenyl(2′,3′,4,5′-tetrahydro-[1,1′-biphenyl]-4-yl)methyl)-6-(trifluoromethyl)-1,2-dihydropyridine-3-carboxamide] | 400 |
| O=C(NC(c1ccccc1)c1ccc(C2=CCOCC2)cc1)c1ccc(C(F)(F)F)[nH]c1=O (stereo not shown) [Compound 33, N-((4-(3,6-dihydro-2H-pyran-4-yl)phenyl)(phenyl)methyl)-2-oxo-6-(trifluoromethyl)-1,2-dihydropyridine-3-carboxamide] | 820 |
| O=C(NC(c1ccccc1)c1ccc(C2CCCC2)cc1)c1ccc(C(F)(F)F)[nH]c1=O (stereo not shown) [Compound 38, N-((4-cyclopentylphenyl)(phenyl)methyl)-2-oxo-6-(trifluoromethyl)-1,2-dihydropyridine-3-carboxamide] | 450 |
| O=C(NC(c1ccccc1)c1ccc(C2CCCCC2)cc1)c1ccc(C(F)(F)F)[nH]c1=O (stereo not shown) [Compound 39, N-((4-cyclohexylphenyl)(phenyl)methyl)-2-oxo-6-(trifluoromethyl)-1,2-dihydropyridine-3-carboxamide] | 490 |
| CN(C)c1ccc(C(NC(=O)c2ccc(C(F)(F)F)[nH]c2=O)c2ccccc2)cc1 (stereo not shown) [Compound 41, N-((4-(dimethylamino)phenyl) (phenyl)methyl)-2-oxo-6-(trifluoromethyl)-1,2-dihydropyridine-3-carboxamide] | 1290 |
| O=C(NC(c1ccccc1)c1ccc(N2CCOCC2)cc1)c1ccc(C(F)(F)F)[nH]c1=O (stereo not shown) [Compound 48, N-((4-morpholinophenyl)(phenyl)methyl)-2-oxo-6-(trifluoromethyl)-1,2-dihydropyridine-3-carboxamide] | 2490 |
| N#Cc1ccc(C(NC(=O)c2ccc(C(F)(F)F)[nH]c2=O)c2ccc(C#N)cc2)cc1 [Compound 49, N-(bis(4-cyanophenyl)methyl)-2-oxo-6-(trifluoromethyl)-1,2-dihydropyridine-3-carboxamide] | 980 |

Continued, values first:

| IC50 [nM] | SMILES |
| --- | --- |
| 1520 | O=C(NC1c2ccccc2C=Cc2ccccc21)c1ccc(C(F)(F)F)[nH]c1=O [Compound 5A, N-(5H-dibenzo[a,d][7]annulen-5-yl)-2-oxo-6-(trifluoromethyl)-1,2-dihydropyridine-3-carboxamide] |
| 5150 | Nc1ccc(C(NC(=O)c2ccc(C(F)(F)F)[nH]c2=O)c2ccccc2)cc1 (stereo not shown) [Compound 6A, N-((4-aminophenyl)(phenyl)methyl)-2-oxo-6-(trifluoromethyl)-1,2-dihydropyridine-3-carboxamide] |
| 6310 | O=C(NC1c2ccc(OC(F)(F)F)cc2-c2cc(OC(F)(F)F)ccc21)c1ccc(C(F)(F)F)[nH]c1=O [Compound 8A, N-(3,6-bis(trifluoromethoxy)-9H-fluoren-9-yl)-2-oxo-6-(trifluoromethyl)-1,2-dihydropyridine-3-carboxamide] |
| 670 | O=C(NC(c1ccc(Br)cc1)c1ccc(Br)cc1)c1ccc(C(F)(F)F)[nH]c1=O [Compound 10, N-(bis(4-bromophenyl)methyl)-2-oxo-6-(trifluoromethyl)-1,2-dihydropyridine-3-carboxamide] |
| 1460 | O=C(NC1c2ccccc2Sc2ccccc21)c1ccc(C(F)(F)F)[nH]c1=O [Compound 10A, 2-oxo-N-(9H-thioxanthen-9-yl)-6-(trifluoromethyl)-1,2-dihydropyridine-3-carboxamide] |
| 1090 | O=C(NC(c1ccc(OC(F)(F)F)cc1)c1ccc(OC(F)(F)F)cc1)c1ccc(C(F)(F)F)[nH]c1=O [Compound 11, N-(bis(4-(trifluoromethoxy)phenyl)methyl)-2-oxo-6-(trifluoromethyl)-1,2-dihydropyridine-3-carboxamide] |
| 1190 | O=C(NC1c2ccccc2S(=O)(=O)c2ccccc21)c1ccc(C(F)(F)F)[nH]c1=O [Compound 11A, N-(10,10-dioxido-9H-thioxanthen-9-yl)-2-oxo-6-(trifluoromethyl)-1,2-dihydropyridine-3-carboxamide] |
| 4280 | O=C(NC1c2ccc(Cl)cc2-c2cc(Cl)ccc21)c1ccc(C(F)(F)F)[nH]c1=O [Compound 14A, N-(3,6-dichloro-9H-fluoren-9-yl)-2-oxo-6-(trifluoromethyl)-1,2-dihydropyridine-3-carboxamide] |
| 3640 | O=C(NC(c1ccccc1)c1ccc(O)c(F)c1)c1ccc(C(F)(F)F)[nH]c1=O (stereo not shown) [Compound 16A, N-((3-fluoro-4-hydroxyphenyl)(phenyl)methyl)-2-oxo-6-(trifluoromethyl)-1,2-dihydropyridine-3-carboxamide] |
| 3100 | O=C(NC(c1ccccc1)c1ccccc1C(F)(F)F)c1ccc(C(F)(F)F)[nH]c1=O (stereo not shown) [Compound 17A, 2-oxo-N-(phenyl(2-(trifluoromethyl)phenyl)methyl)-6-(trifluoromethyl)-1,2-dihydropyridine-3-carboxamide] |
| 2960 | CCC(NC(=O)c1ccc(C(F)(F)F)[nH]c1=O)c1ccc(Cl)cc1 (stereo not shown) [Compound 22A, N-(1-(4-chlorophenyl)propyl)-2-oxo-6-(trifluoromethyl)-1,2-dihydropyridine-3-carboxamide] |
| 4240 | O=C(NC(c1ccc(O)cc1)c1ccc(O)cc1)c1ccc(C(F)(F)F)[nH]c1=O [Compound 23, N-(bis(4-hydroxyphenyl)methyl)-2-oxo-6-(trifluoromethyl)-1,2-dihydropyridine-3-carboxamide] |
| 1630 | O=C(NC(c1ccc(F)cc1)c1ccc(F)cc1)c1ccc(C(F)(F)F)[nH]c1=O [Compound 34, N-(bis(4-fluorophenyl)methyl)-2-oxo-6-(trifluoromethyl)-1,2-dihydropyridine-3-carboxamide] |
| 1650 | O=C(NC1c2ccccc2CCc2ccccc21)c1ccc(C(F)(F)F)[nH]c1=O [Compound 40, N-(10,11-dihydro-5H-dibenzo[a,d][7]annulen-5-yl)-2-oxo-6-(trifluoromethyl)-1,2-dihydropyridine-3-carboxamide] |
| 1300 | CCc1ccc2c(c1)-c1cc(CC)ccc1C2NC(=O)c1ccc(C(F)(F)F)[nH]c1=O [Compound 42, N-(3,6-diethyl-9H-fluoren-9-yl)-2-oxo-6-(trifluoromethyl)-1,2-dihydropyridine-3-carboxamide] |
| 1750 | O=C(NC1c2ccc(O)cc2-c2cc(O)ccc21)c1ccc(C(F)(F)F)[nH]c1=O [Compound 45, N-(3,6-dihydroxy-9H-fluoren-9-yl)-2-oxo-6-(trifluoromethyl)-1,2-dihydropyridine-3-carboxamide] |
| 1830 | O=C(NC1c2ccc(OC(F)F)cc2-c2cc(OC(F)F)ccc21)c1ccc(C(F)(F)F)[nH]c1=O [Compound 47, N-(3,6-bis(difluoromethoxy)-9H-fluoren-9-yl)-2-oxo-6-(trifluoromethyl)-1,2-dihydropyridine-3-carboxamide] |

Same assay, conditions: 150 nM HSD17B13; read-out: Inhibition of 150 nM of HSD17B13 IC50

| IC50 [nM] | SMILES |
| --- | --- |
| 4700 | COc1cccc(C(NC(=O)c2ccc(C(F)(F)F)[nH]c2=O)c2ccccc2)c1 (stereo not shown) [Compound 4, N-((3-methoxyphenyl)(phenyl)methyl)-2-oxo-6-(trifluoromethyl)-1,2-dihydropyridine-3-carboxamide] |
| 4520 | O=C(NC(c1ccccc1)c1cccc(Cl)c1)c1ccc(C(F)(F)F)[nH]c1=O (stereo not shown) [Compound 6, N-((3-chlorophenyl)(phenyl)methyl)-2-oxo-6-(trifluoromethyl)-1,2-dihydropyridine-3-carboxamide] |
| 3230 | COc1ccccc1C(NC(=O)c1ccc(C(F)(F)F)[nH]c1=O)c1ccccc1 (stereo not shown) [Compound 8, N-((2-methoxyphenyl)(phenyl)methyl)-2-oxo-6-(trifluoromethyl)-1,2-dihydropyridine-3-carboxamide] |
| 2110 | Cc1cccc(C(NC(=O)c2ccc(C(F)(F)F)[nH]c2=O)c2ccccc2)c1 (stereo not shown) [Compound 20, N-(phenyl(m-tolyl)methyl)-2-oxo-6-(trifluoromethyl)-1,2-dihydropyridine-3-carboxamide] |
